Source: ChEMBL document CHEMBL5113472, “Structure-activity relationship studies of [1,2,5]oxadiazolo[3,4-b]pyrazine-containing polymyxin-selective resistance-modifying agents” (Bioorg Med Chem Lett, 2022)
≈ marks a conversion by molar mass, not a printed value.

What was measured:
Escherichia coli [1] = test: Potentiation of colistin-induced antibacterial activity against Escherichia coli AR0493 harboring mcr-1 plasmid assessed as minimum resensitizing concentration; type: functional
Salmonella typhimurium [2] = test: Potentiation of colistin-induced antibacterial activity against Salmonella Typhimurium AR0539 harboring mcr-3 plasmid assessed as colistin MIC at 1 ug/ml; type: functional, Salmonella enterica subsp. enterica serovar Typhimurium; conditions: Salmonella enterica, dose 1 µg/ml
Pseudomonas aeruginosa [3] = test: Potentiation of colistin-induced antibacterial activity against Pseudomonas aeruginosa AR0239 assessed as colistin MIC at 1 ug/ml; type: functional; conditions: dose 1 µg/ml
Klebsiella pneumoniae [4] = test: Potentiation of colistin-induced antibacterial activity against Klebsiella pneumoniae AR0497 harboring mcr-1 plasmid assessed as colistin MIC at 1 ug/ml; type: functional; conditions: dose 1 µg/ml
Escherichia coli [5] = test: Potentiation of colistin-induced antibacterial activity against Escherichia coli AR0538 harboring mcr-2 plasmid assessed as colistin MIC at 1 ug/ml; type: functional; conditions: dose 1 µg/ml
[6] = Selectivity index, ratio of GI50 for cytotoxicity against human HeLa cells to MRC for Potentiation of colistin-induced antibacterial activity against Escherichia coli AR0493 harboring mcr-1 plasmid; type: toxicity, cell-based; conditions: read-out: Selectivity Index
Escherichia coli [7] = test: Antibacterial activity against Escherichia coli AR0493 harboring mcr-1 plasmid assessed as inhibition of bacterial growth; type: functional
Salmonella typhimurium [8] = test: Potentiation of colistin-induced antibacterial activity against Salmonella Typhimurium AR0635 harboring mcr-4 plasmid assessed as colistin MIC at 1 ug/ml; type: functional, Salmonella enterica subsp. enterica serovar Typhimurium; conditions: Salmonella enterica, dose 1 µg/ml
Pseudomonas aeruginosa [9] = test: Potentiation of colistin-induced antibacterial activity against Pseudomonas aeruginosa AR0257 assessed as colistin MIC at 1 ug/ml; type: functional; conditions: dose 1 µg/ml
Escherichia coli [10] = test: Potentiation of colistin-induced antibacterial activity against Escherichia coli AR0493 harboring mcr-1 plasmid assessed as colistin MIC at 1 ug/ml; type: functional; conditions: dose 1 µg/ml
[11] = Cytotoxicity against human HeLa cells assessed as inhibition of cell growth by cell viability assay; type: toxicity, cell-based
Acinetobacter baumannii [12] = test: Potentiation of colistin-induced antibacterial activity against Acinetobacter baumannii AR0310 assessed as colistin MIC at 1 ug/ml; type: functional; conditions: dose 1 µg/ml
Acinetobacter baumannii [13] = test: Antibacterial activity against Acinetobacter baumannii AR0310 assessed as inhibition of bacterial growth; type: functional, organism-based
Pseudomonas aeruginosa [14] = test: Antibacterial activity against Pseudomonas aeruginosa AR0257 assessed as inhibition of bacterial growth; type: functional, organism-based
Pseudomonas aeruginosa [15] = test: Antibacterial activity against Pseudomonas aeruginosa AR0239 assessed as inhibition of bacterial growth; type: functional, organism-based
Salmonella typhimurium [16] = test: Antibacterial activity against Salmonella Typhimurium AR0539 harboring mcr-3 plasmid assessed as inhibition of bacterial growth; type: functional, organism-based; conditions: Salmonella enterica subsp. enterica serovar Typhimurium
Klebsiella pneumoniae [17] = test: Antibacterial activity against Klebsiella pneumoniae AR0497 harboring mcr-1 plasmid assessed as inhibition of bacterial growth; type: functional, organism-based
Salmonella typhimurium [18] = test: Antibacterial activity against Salmonella Typhimurium AR0635 harboring mcr-4 plasmid assessed as inhibition of bacterial growth; type: functional, organism-based; conditions: Salmonella enterica subsp. enterica serovar Typhimurium
Escherichia coli [19] = test: Antibacterial activity against Escherichia coli AR0538 harboring mcr-2 plasmid assessed as inhibition of bacterial growth; type: functional, organism-based

Compound	MRC (Escherichia coli [1]) [µg/mL]	selectivity ratio [6]	MIC (Escherichia coli [7]) [µg/mL]	GI50 [11] [µg/mL]	other results
Cc1ccccc1Nc1nc2nonc2nc1Nc1ccccc1C	8	–	–	–	–
Oc1nc2nonc2nc1Nc1ccc(Cl)cc1	32	–	–	–	–
COc1ccc(Nc2nc3nonc3nc2Nc2ccc(OC)cc2)cc1	>64	–	–	–	–
FC(F)(F)Oc1cccc(Nc2nc3nonc3nc2Nc2ccccc2)c1	1	–	–	–	–
Clc1ccc(Nc2nc3nonc3nc2Nc2ccc(Cl)cc2)cc1	0.5	56	> 64	28 (≈ 75 µM)	MIC (Salmonella typhimurium [2]): 2 µg/mL; MIC (Pseudomonas aeruginosa [3]): 1 µg/mL; MIC (Klebsiella pneumoniae [4]): 1 µg/mL; MIC (Escherichia coli [5]): 2 µg/mL; MIC (Salmonella typhimurium [8]): 1 µg/mL; MIC (Pseudomonas aeruginosa [9]): 2 µg/mL; MIC (Escherichia coli [10]): 1 µg/mL; MIC (Acinetobacter baumannii [12]): 0.25 µg/mL
COc1ccc(Nc2nc3nonc3nc2O)cc1	>64	–	–	–	–
Cc1ccc(Nc2nc3nonc3nc2Nc2ccc(C)cc2)cc1	0.5	22	> 64	11 (≈ 33.1 µM)	–
Fc1cccc(Nc2nc3nonc3nc2Nc2cccc(F)c2)c1	0.5	40	> 64	20 (≈ 58.8 µM)	–
COLISTIN	–	–	8	–	MIC (Acinetobacter baumannii [13]): 32 µg/mL; MIC (Pseudomonas aeruginosa [14]): 8 µg/mL; MIC (Pseudomonas aeruginosa [15]): 4 µg/mL; MIC (Salmonella typhimurium [16]): 8 µg/mL; MIC (Klebsiella pneumoniae [17]): 8 µg/mL; MIC (Salmonella typhimurium [18]): 32 µg/mL; MIC (Escherichia coli [19]): 8 µg/mL
Clc1ccccc1Nc1nc2nonc2nc1Nc1ccccc1Cl	8	–	–	–	–
Oc1nc2nonc2nc1Nc1ccc(OC(F)(F)F)cc1	16	–	–	–	–
COc1ccccc1Nc1nc2nonc2nc1Nc1ccccc1OC	>64	–	–	–	–
COc1cccc(Nc2nc3nonc3nc2Nc2cccc(OC)c2)c1	2	–	–	–	–
Oc1nc2nonc2nc1Nc1ccccc1OC(F)(F)F	>64	–	–	–	–
Cc1cccc(Nc2nc3nonc3nc2O)c1	8	–	–	–	–
COc1cccc(Nc2nc3nonc3nc2O)c1	16	–	–	–	–
Cc1cccc(Nc2nc3nonc3nc2Nc2cccc(OC(F)(F)F)c2)c1	0.5	24	> 64	12 (≈ 29.8 µM)	–
Clc1cccc(Nc2nc3nonc3nc2Nc2cccc(Cl)c2)c1	–	44	> 64	11 (≈ 29.5 µM)	MIC (Salmonella typhimurium [2]): 1 µg/mL; MIC (Pseudomonas aeruginosa [3]): 1 µg/mL; MIC (Klebsiella pneumoniae [4]): 1 µg/mL; MIC (Escherichia coli [5]): 1 µg/mL; MIC (Salmonella typhimurium [8]): 1 µg/mL; MIC (Pseudomonas aeruginosa [9]): 2 µg/mL; MIC (Escherichia coli [10]): 1 µg/mL; MIC (Acinetobacter baumannii [12]): 0.25 µg/mL

Compound	MRC (Escherichia coli [1]) [µg/mL]	selectivity ratio [6]	MIC (Escherichia coli [7]) [µg/mL]	GI50 [11] [µg/mL]	other results
Cc1cccc(Nc2nc3nonc3nc2Nc2cccc(C)c2)c1	0.5	30	> 64	15 (≈ 45.1 µM)	–
COc1ccccc1Nc1nc2nonc2nc1Nc1cccc(OC(F)(F)F)c1	>64	–	–	–	–
Oc1nc2nonc2nc1Nc1ccc(F)cc1	32	–	–	–	–
Fc1ccc(Nc2nc3nonc3nc2Nc2ccc(F)cc2)cc1	0.5	19	> 64	9.4 (≈ 27.6 µM)	–
Cc1ccc(Nc2nc3nonc3nc2O)cc1	64	–	–	–	–
Oc1nc2nonc2nc1Nc1ccccc1F	64	–	–	–	–
c1ccc(Nc2nc3nonc3nc2Nc2ccccc2)cc1	0.5	8.8	> 64	4.4 (≈ 14.5 µM)	–
Oc1nc2nonc2nc1Nc1ccccc1Cl	16	–	–	–	–
FC(F)(F)Oc1cccc(Nc2nc3nonc3nc2Nc2cccc(OC(F)(F)F)c2)c1	0.25	17	> 64	4.3 (≈ 9.1 µM)	–
Oc1nc2nonc2nc1Nc1cccc(OC(F)(F)F)c1	4	6	> 64	24 (≈ 76.6 µM)	–
FC(F)(F)Oc1ccccc1Nc1nc2nonc2nc1Nc1ccccc1OC(F)(F)F	>64	–	–	–	–
Cc1ccccc1Nc1nc2nonc2nc1O	64	–	–	–	–
FC(F)(F)Oc1ccc(Nc2nc3nonc3nc2Nc2ccc(OC(F)(F)F)cc2)cc1	0.25	23	> 64	5.7 (≈ 12.1 µM)	–
Oc1nc2nonc2nc1Nc1cccc(F)c1	64	–	–	–	–
Oc1nc2nonc2nc1Nc1ccccc1	>64	–	–	–	–
O=c1[nH]c2nonc2nc1Nc1cccc(Cl)c1	16	–	–	–	–
COc1ccccc1Nc1nc2nonc2nc1O	4	> 25	> 64	> 100	–
